Legend:
[1] = system: IP-Implanted L1210 Leukemia; experiment: Dose-response against IP-implanted L1210 leukemia, IP treatment Days 1, 5 and 9, 30-day test (Table 2); format: in vivo, CD2Fl male mice
Protocol: (§1) Biological properties of the compounds of the present invention were determined following the protocol described in Cancer Chemotherapy Reports, Vol. 3, No. 3, 1972 which report is incorporated herein by reference.
(§2) This experiment (A8-00005 3LE31) was conducted at the Southern Research Institute, Birmingham, Ala. under the supervision of Dr. Daniel Griswold. The protocols were the same as those published previously (Geran et al., Cancer Chemotherapy Reports 3: No. 2, 1972 [Attachment 11]). 10^5 cells were implanted intraperitoneally in CD2Fl male mice on Day 0. Drug treatments were given intraperitoneally as single injections at the doses indicated on Days 1, 5 and 9 after tumor implantation. The diluent was saline except for NSC-271674 where 5% sodium bicarbonate was used. All drugs were prepared fresh on the day of injection, and all were administered in solution. Median survival times for both control and drug-treated mice were determined and expressed as a percentage (% T/C). Body weights were determined on Day 5 and expressed as a weight difference (body weight of the drug-treated animals minus that of the control animals in grams) (T-C). The diluent control animals lived a median of 8.4 days and gained 1.9 grams by Day 5 in this experiment. All animals, including Day 30 survivors, were used in the calculation of median survival times. The log10 change in tumor burden refers to the net log change in viable tumor cell population at the end of therapy (Rx) as compared to the start of therapy; e.g., a […] means that there was a […] and a 3 log change means there was a 1000-fold increase in tumor burden at the end of therapy. The tumor burden at the start of therapy was about 6.1×10^5 cells in this experiment.

IP L1210 = experiment: Activity against IP-implanted L1210 leukemia sensitive to cisplatin, 30 day test (Table 3); format: in vivo, Female CD2Fl mice
Protocol: as §1
Other known mechanisms of resistance for other classes of agents, such as gene amplification or target enzyme change or amplication, also need to be explored. The experiments summarized in Table 3 were conducted at the same time against both sublines using the same drug preparations. […] These experiments were repeated in a second laboratory as documented in Table 4. However, in these experiments the animals were held for 60 rather than 30 days to evaluate whether or not long-term survivors are produced after drug treatment in a more challenging setting.
as §2
These experiments (A8-00008 3LE31 and A8-00001 3DP31) were conducted concurrently at the Southern Research Institute, Birmingham, Ala. under the supervision of Dr. Daniel Griswold. See Table 4 for experimental details. The diluent control animals bearing L1210 leukemia lived a median of 8.6 days and gained 1.3 grams by Day 5. […] Female CD2Fl mice were used for these experiments.

[2] = system: SC Implanted L1210 Leukemia; experiment: Activity against SC implanted L1210 leukemia following intravenous administration, once daily Days 1-5 (Table 5); format: in vivo, CD2Fl male mice; conditions: IV once daily Days 1-5
Protocol: as §1
In another type of experiment the same platinum complexes were directly compared against the SC implanted L1210 following intravenous administration (Table 5).
This experiment (A8-00004 3LE32) was conducted at the Southern Research Institute, Birmingham, Ala. under the supervision of Dr. Daniel Griswold. The protocols were the same as those published previously (Attachment 11). 10^6 cells were implanted subcutaneously in CD2Fl male mice on Day 0. Drug treatments were given intravenously once daily at the doses indicated on Days 1-5 after tumor implantation. The dosage range tested included the highest and lowest doses indicated in the Table as well as intermediate values which were determined by multiplying each dose in turn by 0.5 starting with the highest dose. The diluent was saline except for NSC-271674 for which 5% sodium bicarbonate was used. All drugs were prepared fresh on the day of injection, and all were administered in solution. Median survival times for both control and drug-treated mice were determined and expressed as a percentage (% T/C). Body weights were determined on Day 5 and expressed as a weight difference (body weight of the drug-treated animals minus that of the control animals in grams) (T-C).

[3] = system: IP-Implanted L1210/Cisplatin; experiment: Comparison of isomers: long term survivors and weight differences in treating IP-implanted L1210/Cisplatin (Table 6); format: in vivo, mice
Description: Comparative data for the others are as follows: 27 for trans d, 27 for trans d l and 13 for cis. […] The higher the ratio the more convenient it is to prepare a formulation for intravenous administration to patients which is shown in Table 7.

[4] = system: L1210 and L1210/Cisplatin leukemia; experiment: Total number of long-term survivors in Tables 2-4; format: in vivo, CD2Fl mice; conditions: Tables 2-4 summed
Description: If one summarizes the data in Tables 2-4 by totalling the number of long-term survivors, unexpected differences among the isomers become apparent. For example, the trans l compound produced 30 long-term survivors.

SMILES: [Cl][Pt]1([Cl])([Cl])([Cl])[NH]C2CCCCC2[NH]1 (stereo not drawn) [trans (d, l), (d,l)-Tetrachloro-trans-1,2-cyclohexanediamine platinum (IV)]
- 30-Day Survivors/Total ([1]; 1 mg/kg/dose IP): 0/6
- Approx. Log10 Change in Tumor Burden at End of Rx ([1]; 1 mg/kg/dose IP): ~2.9 log10
- Body Weight Difference ([1]; 1 mg/kg/dose IP): -0.5 Grams
- Median % T/C ([1]; 1 mg/kg/dose IP): 122%
- 30-Day Survivors/Total ([1]; 2 mg/kg/dose IP): 0/6
- Approx. Log10 Change in Tumor Burden at End of Rx ([1]; 2 mg/kg/dose IP): ~2.5 log10
- Body Weight Difference ([1]; 2 mg/kg/dose IP): -1.5 Grams
- Median % T/C ([1]; 2 mg/kg/dose IP): 146%
- 30-Day Survivors/Total ([1]; 4 mg/kg/dose IP): 1/6
- Approx. Log10 Change in Tumor Burden at End of Rx ([1]; 4 mg/kg/dose IP): ~-0.5 log10
- Body Weight Difference ([1]; 4 mg/kg/dose IP): -1.5 Grams
- Median % T/C ([1]; 4 mg/kg/dose IP): 202%
- 30-Day Survivors/Total ([1]; 8 mg/kg/dose IP): 4/6
- Approx. Log10 Change in Tumor Burden at End of Rx ([1]; 8 mg/kg/dose IP): ~-5.7 log10
- Body Weight Difference ([1]; 8 mg/kg/dose IP): -1.2 Grams
- Median % T/C ([1]; 8 mg/kg/dose IP): 357%
- Body Weight Difference ([1]; 8 mg/kg/dose IP, listed as trans dl): less than -4 Grams
- 30-Day Survivors/Total ([1]; 16 mg/kg/dose IP): 1/6
- Approx. Log10 Change in Tumor Burden at End of Rx ([1]; 16 mg/kg/dose IP): ~2.6 log10
- Body Weight Difference ([1]; 16 mg/kg/dose IP): -4.6 Grams
- Median % T/C ([1]; 16 mg/kg/dose IP): 142%
- Optimal dose (dose producing best therapeutic response) ([1]; day 1, 5 and 9 schedule): 8 mg/kg/injection
- 30 Day Survivors/Total (IP L1210; 1 mg/kg/dose): 0/6
- Approx. Log10 Change in Tumor Burden at End of RX (IP L1210; 1 mg/kg/dose): ~2.8 log10
- Median % T/C (IP L1210; 1 mg/kg/dose): 125%
- 30 Day Survivors/Total (IP L1210; 2 mg/kg/dose): 0/6
- Approx. Log10 Change in Tumor Burden at End of RX (IP L1210; 2 mg/kg/dose): ~2.4 log10
- Median % T/C (IP L1210; 2 mg/kg/dose): 151%
- 30 Day Survivors/Total (IP L1210; 4 mg/kg/dose): 2/6
- Approx. Log10 Change in Tumor Burden at End of RX (IP L1210; 4 mg/kg/dose): ~-1.5 log10
- Median % T/C (IP L1210; 4 mg/kg/dose): 212%
- 30 Day Survivors/Total (IP L1210; 8 mg/kg/dose): 3/6
- Approx. Log10 Change in Tumor Burden at End of RX (IP L1210; 8 mg/kg/dose): ~-5.9 log10
- Median % T/C (IP L1210; 8 mg/kg/dose): 348%
- 30 Day Survivors/Total (IP L1210; 16 mg/kg/dose): 1/6
- Median % T/C (IP L1210; 16 mg/kg/dose): 143%
- Optimal Dose [2]: 2.5 mg/kg/inj
- Total Grams of Weight Difference [3]: -10.0 Grams
- Total number of long-term survivors [3]: 12
- Total number of long-term survivors [4]: 27

— US4599352A, “Antineoplastic platinum (IV) complexes and compositions” (priority 1984, dated 1986)
